Target: T1, F508del in NIH 3T3 cells (Homo sapiens, UniProt P13569, DEL508-508)
T1 construct: expressed in transfected cells
Assay: 3T3 assay: membrane potential optical assay for F508del correction
Assay type: cell-based, mouse
Settings: F508del NIH 3T3 cells; for EC50: incubated with compound 18-24 hours at 37° C., forskolin activation; for Emax: NIH3T3, efficacy compared to lumacaftor in combination with acutely added 300 nM Ivacaftor, read-out: 3T3 Max Activity (%)
Source text: Membrane Potential Optical Methods for Assaying F508del Modulation Properties of Compounds The assay utilizes fluorescent voltage sensing dyes to measure changes in membrane potential using a fluorescent plate reader (e.g., FLIPR III, Molecular Devices, Inc.) as a readout for increase in functional F508del in NIH 3T3 cells. The driving force for the response is the creation of a chloride ion gradient in conjunction with channel activation by a single liquid addition step after the cells have previously been treated with compounds and subsequently loaded with a voltage sensing dye. 2. Identification of Corrector Compounds To identify correctors of F508del, a single-addition HTS assay format was developed. This HTS assay utilizes fluorescent voltage sensing dyes to measure changes in membrane potential on the FLIPR III as a measurement for increase in gating (conductance) of F508del in F508del NIH 3T3 cells. The F508del NIH 3T3 cell cultures were incubated with the corrector compounds at a range of concentrations for 18-24 hours at 37° C., and subsequently loaded with a redistribution dye. The driving force for the response is a Cl^− ion gradient in conjunction with channel activation with forskolin in a single liquid addition step using a fluorescent plate reader such as FLIPR III. […] Solutions […] Chloride-free bath solution: Chloride salts in Bath Solution #1 (above) are substituted with gluconate salts. 4. Cell Culture NIH3T3 mouse fibroblasts stably expressing F508del are used for optical measurements of membrane potential. The cells are maintained at 37° C. in 5% CO2 and 90% humidity in Dulbecco's modified Eagle's medium supplemented with 2 mM glutamine, 10% fetal bovine serum, 1×NEAA, b-ME, 1×pen/strep, and 25 mM HEPES in 175 cm^2 culture flasks. For all optical assays, the cells were seeded at ˜20,000/well in 384-well Matrigel-coated plates. For the correction assays, the cells are cultured at 37° C. with and without compounds for 16-24 hours.

T1 sequence (P13569 with tags, fused parts or gaps DEL508-508): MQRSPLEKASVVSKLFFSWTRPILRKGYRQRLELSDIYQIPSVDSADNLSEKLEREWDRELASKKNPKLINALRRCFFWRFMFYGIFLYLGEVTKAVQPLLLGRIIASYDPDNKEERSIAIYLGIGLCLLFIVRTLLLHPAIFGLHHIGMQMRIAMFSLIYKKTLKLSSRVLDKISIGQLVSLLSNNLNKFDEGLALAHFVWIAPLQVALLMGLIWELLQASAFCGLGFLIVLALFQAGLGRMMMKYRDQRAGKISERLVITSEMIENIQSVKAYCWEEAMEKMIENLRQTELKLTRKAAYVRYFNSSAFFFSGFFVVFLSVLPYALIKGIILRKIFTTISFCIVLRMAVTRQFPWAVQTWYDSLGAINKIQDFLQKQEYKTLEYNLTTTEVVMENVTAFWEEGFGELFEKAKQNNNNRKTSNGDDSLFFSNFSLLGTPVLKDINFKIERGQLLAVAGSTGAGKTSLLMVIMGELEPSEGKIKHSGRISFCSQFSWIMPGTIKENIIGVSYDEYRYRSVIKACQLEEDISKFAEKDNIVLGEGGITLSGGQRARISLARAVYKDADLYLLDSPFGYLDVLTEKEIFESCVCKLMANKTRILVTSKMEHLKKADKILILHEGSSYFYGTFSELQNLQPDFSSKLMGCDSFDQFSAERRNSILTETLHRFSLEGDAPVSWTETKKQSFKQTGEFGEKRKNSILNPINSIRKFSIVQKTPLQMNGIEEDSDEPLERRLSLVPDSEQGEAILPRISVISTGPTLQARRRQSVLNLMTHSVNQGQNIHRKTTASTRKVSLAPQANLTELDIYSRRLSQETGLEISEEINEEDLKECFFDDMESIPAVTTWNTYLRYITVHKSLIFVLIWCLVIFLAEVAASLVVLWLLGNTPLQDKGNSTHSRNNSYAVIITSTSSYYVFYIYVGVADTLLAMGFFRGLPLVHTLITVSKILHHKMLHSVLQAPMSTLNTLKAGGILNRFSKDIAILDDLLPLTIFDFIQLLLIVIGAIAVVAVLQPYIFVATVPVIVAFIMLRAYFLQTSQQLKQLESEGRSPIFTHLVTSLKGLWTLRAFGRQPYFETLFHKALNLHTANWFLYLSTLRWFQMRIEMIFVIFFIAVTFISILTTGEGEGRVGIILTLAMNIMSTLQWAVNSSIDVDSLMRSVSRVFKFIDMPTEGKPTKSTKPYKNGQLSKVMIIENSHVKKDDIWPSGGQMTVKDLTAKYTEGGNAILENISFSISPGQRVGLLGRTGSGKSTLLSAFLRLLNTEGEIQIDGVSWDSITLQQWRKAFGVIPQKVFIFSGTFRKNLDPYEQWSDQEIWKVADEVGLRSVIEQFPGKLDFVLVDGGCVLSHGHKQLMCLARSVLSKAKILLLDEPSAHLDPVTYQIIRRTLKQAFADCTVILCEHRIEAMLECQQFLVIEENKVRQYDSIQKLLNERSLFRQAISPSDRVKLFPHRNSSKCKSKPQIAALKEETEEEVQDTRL

| Compound | EC50 [µM] | Emax [%] |
| --- | --- | --- |
| Cc1cc(C)c(-n2nc(NS(=O)(=O)c3cccc(N)c3)c3ccc(C(C)(C)C)nc32)c(C)c1 [Compound 61] | < 1 | 30 to 60 |
| CC(C)(C)c1ccc2c(NS(=O)(=O)c3ccccc3)nn(-c3cccc(Cl)c3)c2n1 [Compound 38, N-[6-tert-butyl-1-(3-chlorophenyl)pyrazolo[3,4-b]pyridin-3-yl]benzenesulfonamide] | < 1 | 30 to 60 |
| CC(C)CCn1nc(NS(=O)(=O)c2ccccc2)c2ccc(C(C)(C)C)nc21 [Compound 41] |  | < 30 |
| COc1cccc(-n2nc(NS(=O)(=O)c3ccccc3)c3ccc(C(C)(C)C)nc32)c1 [Compound 50] | < 1 | 30 to 60 |
| O=S(=O)(Nc1nc(Oc2ccccc2)c2ccccc2n1)c1ccccc1 [Compound 31, N-(4-phenoxyquinazolin-2-yl)benzenesulfonamide] | 3 to 30 |  |
| O=S(=O)(Nc1nc2c(c(Oc3ccccc3)n1)CCC2)c1ccccc1 [Compound 6, N-(4-phenoxy-6,7-dihydro-5H-cyclopenta[d]pyrimidin-2-yl)benzenesulfonamide] | 3 to 30 | > 60 |
| Cc1cc(C)cc(-n2nc(NS(=O)(=O)c3ccccc3)c3ccc(C(C)(C)C)nc32)c1 [Compound 37, N-[6-tert-Butyl-1-(3,5-dimethylphenyl)pyrazolo[3,4-b]pyridin-3-yl]benzenesulfonamide] | < 1 | 30 to 60 |
| Cc1cc(C)cc(-c2nc(NS(=O)(=O)c3ccccc3)c3ccc(C(C)(C)C)nc3n2)c1 [Compound 17] |  | < 30 |
| Cc1cc(C)c(Oc2nc3ccccc3nc2NS(=O)(=O)c2ccccc2)c(C)c1 [Compound 13] | 1 to 3 | 30 to 60 |
| Cc1cc(C)c(-n2nc(NS(=O)(=O)c3ccccc3)c3cccnc32)c(C)c1 [Compound 52] |  | 30 to 60 |
| Cc1ccc(-n2nc(NS(=O)(=O)c3ccccc3)c3ccc(C(C)(C)C)nc32)c(C)c1 [Compound 43] | < 1 | 30 to 60 |
| CC(C)(C)c1ccccc1Oc1nc2ccccc2nc1NS(=O)(=O)c1ccccc1 [Compound 10, N-[3-(2-tert-butylphenoxy)quinoxalin-2-yl]benzenesulfonamide] | < 1 |  |
| CC(C)N1CCc2nc(NS(=O)(=O)c3ccccc3)sc2C1 [Compound 22] |  | < 30 |
| COc1ccc(S(=O)(=O)Nc2nn(-c3c(C)cc(C)cc3C)c3nc(C(C)(C)C)ccc23)cc1 [Compound 64] |  | < 30 |
| Cc1cc(C)c(-n2nc(NS(=O)(=O)c3cn[nH]c3)c3ccc(C(C)(C)C)nc32)c(C)c1 [Compound 35, N-[6-tert-butyl-1-(2,4,6-trimethylphenyl)pyrazolo[3,4-b]pyridin-3-yl]-1H-pyrazole-4-sulfonamide] | 1 to 3 | > 60 |
| CC(C)C(C)n1nc(NS(=O)(=O)c2ccccc2)c2ccc(C(C)(C)C)nc21 (stereo not drawn) [Compound 49] |  | < 30 |
| O=S(=O)(Nc1nc2ccccc2nc1N1CCCCC1)c1ccccc1 [Compound 12, N-[3-(1-piperidyl)quinoxalin-2-yl]benzenesulfonamide] | 3 to 30 | 30 to 60 |
| Cc1cc(C)c(-n2nc(NS(=O)(=O)c3cccc(N(C)C)c3)c3ccc(C(C)(C)C)nc32)c(C)c1 [Compound 34, N-[6-tert-butyl-1-(2,4,6-trimethylphenyl)pyrazolo[3,4-b]pyridin-3-yl]-3-(dimethylamino)benzenesulfonamide] | < 1 | > 60 |
| Cc1ccccc1Oc1nc(NS(=O)(=O)c2cnn(C)c2)nc2c1CC(C)(C)CC2 [Compound 3, N-[6,6-Dimethyl-4-(2-methylphenoxy)-7,8-dihydro-5H-quinazolin-2-yl]-1-methyl-pyrazole-4-sulfonamide] | 1 to 3 | > 60 |
| Cc1cc(C)c(-n2nc(NS(=O)(=O)c3cccc4c3OCCO4)c3ccc(C(C)(C)C)nc32)c(C)c1 [Compound 53] | < 1 | 30 to 60 |
| CC(C)(C)c1ccc2c(NS(=O)(=O)c3ccccc3)nn(-c3ccccc3)c2n1 [Compound 40] | < 1 | 30 to 60 |
| Cc1cccc(C)c1Oc1nc2ccccc2nc1NS(=O)(=O)c1ccccc1 [Compound 11, N-[3-(2,6-Dimethylphenoxy)quinoxalin-2-yl]benzenesulfonamide] | 3 to 30 |  |
| O=S(=O)(NC1=Nc2ccccc2C(c2ccccc2)S1)c1ccccc1 (stereo not drawn) [Compound 9, N-(4-phenyl-4H-3,1-benzothiazin-2-yl)benzenesulfonamide] | 3 to 30 |  |
| Cc1cc(C)c(-n2nc(NS(=O)(=O)c3ccc(N)cc3)c3ccc(C(C)(C)C)nc32)c(C)c1 [Compound 36, 4-Amino-N-[6-tert-butyl-1-(2,4,6-trimethylphenyl)pyrazolo[3,4-b]pyridin-3-yl]benzenesulfonamide] | 1 to 3 |  |
| Cc1cc(C)c(-n2nc(NS(=O)(=O)c3ncc[nH]3)c3ccc(C(C)(C)C)nc32)c(C)c1 [Compound 56] | 1 to 3 | 30 to 60 |
| O=S(=O)(Nc1nc2c(s1)-c1ccccc1CC2)c1ccccc1 [Compound 20, N-(4,5-Dihydrobenzo[g][1,3]benzothiazol-2-yl) benzenesulfonamide] | 3 to 30 |  |
| O=S(=O)(Nc1nc(-c2ccccc2)c2ccn(-c3ccccc3)c2n1)c1ccccc1 [Compound 29, N-(4,7-Diphenylpyrrolo[2,3-d]pyrimidin-2-yl)benzenesulfonamide] | < 1 |  |

Next, values leading:

| EC50 [µM] | Emax [%] | Compound |
| --- | --- | --- |
|  | < 30 | Cc1cc(C)cc(-n2c(NS(=O)(=O)c3ccccc3)nc3ccc(C(C)(C)C)cc32)c1 [Compound 92] |
|  | < 30 | Cc1cc(C)cc(-n2cc(NS(=O)(=O)c3ccccc3)c3ccc(C(C)(C)C)nc32)c1 [Compound 88] |
|  | < 30 | CC(C)(C)c1ccc2nc(NS(=O)(=O)c3ccccc3)[nH]c2c1 [Compound 93] |
|  | < 30 | O=S(=O)(Nc1ccc2cc[nH]c2n1)c1ccccc1 [Compound 82] |
|  | < 30 | Cc1ccccc1-n1cc(NS(=O)(=O)c2ccccc2)c2ccc(C(C)(C)C)nc21 [Compound 89] |
|  | < 30 | Cc1cc(C)c(-n2nc(NS(=O)(=O)c3ccccc3Cl)c3ccc(C(C)(C)C)nc32)c(C)c1 [Compound 68] |
|  | < 30 | Cc1cc(C)c(-c2nnc(NS(=O)(=O)c3ccccc3)c3ccc(C(C)(C)C)nc23)c(C)c1 [Compound 90] |
|  | < 30 | Cc1cc(C)cc(-n2c(NS(=O)(=O)c3ccccc3)nc3cc(C(C)(C)C)ccc32)c1 [Compound 91] |
|  | < 30 | Cc1cc(C)c(-n2nc3nc(C(C)(C)C)ccc3c2NS(=O)(=O)c2ccccc2)c(C)c1 [Compound 71] |
| 1 to 3 | 30 to 60 | Cc1ccccc1-n1nc(NS(=O)(=O)c2ccccc2)c2ccc(C(C)C)cc21 [Compound 73, N-[6-isopropyl-1-(o-tolyl)indazol-3-yl]benzenesulfonamide] |
|  | < 30 | Cc1cc(C)c(Oc2cc(C(C)(C)C)cc3nnc(NS(=O)(=O)c4ccccc4)n23)c(C)c1 [Compound 95] |
| < 1 |  | Cc1cc(C)cc(-c2nc(NS(=O)(=O)c3ccccc3)cc3ccccc23)c1 [Compound 77, N-[1-(3,5-dimethylphenyl)-3-isoquinolyl]benzenesulfonamide] |
|  | < 30 | CCn1nc(NS(=O)(=O)c2ccccc2)c2ccccc21 [Compound 74] |
|  | < 30 | CC(C)(C)C1CCc2nc(NS(=O)(=O)c3ccccc3)ncc2C1 (stereo not drawn) [Compound 84] |
|  | < 30 | CC(C)n1c(NS(=O)(=O)c2ccccc2)nc2ccccc21 [Compound 85] |

From patent publication US20230373974A1, “MODULATORS OF CYSTIC FIBROSIS TRANSMEMBRANE CONDUCTANCE REGULATOR” (VERTEX PHARMACEUTICALS INCORPORATED, priority 2020, published 2023)
